Data as given in the supplement of paper PMC10883282.
± gives the standard deviation of the averaged measurements.

Tested on: G401
Experiment: relative viability vs DMSO control (72 h) (fraction); higher = more viable cells
Outline: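 Sarcoma cell lines were seeded in 384-well plates at densities set to reach 80–90% confluence. After 24 h, 2.5 µl of serially diluted compound was added (source plates 10 mM to 0.0002 mM), and plates were held 72 h at 37 °C, 5% CO2, with 0.1% DMSO vehicle and a 5 µM positive control. Relative viability came from ATPLite readings as percent growth, averaged over up to triplicate wells. Data were rescaled so full viability equals 1 and none equals 0.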

| SMILES | relative viability (0.00017 µM) | relative viability (0.00051 µM) | relative viability (0.00152 µM) | relative viability (0.00457 µM) | relative viability (0.01372 µM) | relative viability (0.04115 µM) | relative viability (0.1235 µM) | relative viability (0.3704 µM) | relative viability (1.111 µM) | relative viability (3.333 µM) | relative viability (10 µM) |
| --- | --- | --- | --- | --- | --- | --- | --- | --- | --- | --- | --- |
| C=CC(=O)Nc1cccc(Oc2nc(Nc3ccc(N4CCN(C)CC4)cc3)nc3ccsc23)c1 [Olmutinib] | 0.984 ± 0.021 | 0.976 ± 0.048 | 0.969 ± 0.022 | 0.984 ± 0.039 | 0.96 ± 0.03 | 0.986 ± 0.043 | 1 ± 0.041 | 1.01 ± 0.043 | 0.916 ± 0.018 | 0.759 ± 0.019 | 0.481 ± 0.036 |
| COc1cc2c(Oc3ccc4[nH]c(C)cc4c3F)ncnc2cc1OCCCN1CCCC1 [Cediranib] | 0.97 ± 0.055 | 1.03 ± 0.015 | 0.993 ± 0.031 | 0.981 ± 0.059 | 0.995 ± 0.029 | 1.01 ± 0.024 | 0.95 ± 0.024 | 0.828 ± 0.013 | 0.47 ± 0.019 | 0.273 ± 0.02 | 0.00627 ± 0.0033 |
| Cc1cnc(Nc2ccc(OCCN3CCCC3)cc2)nc1Nc1cccc(S(=O)(=O)NC(C)(C)C)c1 [Fedratinib] | 1.029 ± 0.0083 | 1.05 ± 0.029 | 1.038 ± 0.0091 | 1.03 ± 0.019 | 1.04 ± 0.011 | 0.997 ± 0.024 | 0.919 ± 0.015 | 0.8157 ± 0.0074 | 0.499 ± 0.0075 | 0.204 ± 0.012 | 0.0136 ± 0.00091 |
| CCCS(=O)(=O)Nc1ccc(F)c(C(=O)c2c[nH]c3ncc(-c4ccc(Cl)cc4)cc23)c1F [Vemurafenib] | 1.01 ± 0.0022 | 1.02 ± 0.016 | 1.01 ± 0.017 | 1.004 ± 0.01 | 1.01 ± 0.024 | 1 ± 0.03 | 1.02 ± 0.0078 | 1.031 ± 0.0097 | 1.01 ± 0.011 | 1.01 ± 0.021 | 0.753 ± 0.023 |
| Cn1cnc2c(F)c(Nc3ccc(Br)cc3F)c(C(=O)NOCCO)cc21 [Binimetinib] | 1.01 ± 0.025 | 1.05 ± 0.019 | 1.03 ± 0.033 | 1.01 ± 0.011 | 0.983 ± 0.023 | 0.904 ± 0.0051 | 0.886 ± 0.029 | 0.859 ± 0.021 | 0.782 ± 0.02 | 0.716 ± 0.046 | 0.584 ± 0.038 |
| COc1c(OCCCN2CCOCC2)ccc2c1N=C(NC(=O)c1cnc(N)nc1)N1CCN=C21 [Copanlisib] | 1.024 ± 0.0087 | 1 ± 0.024 | 0.959 ± 0.039 | 0.7934 ± 0.0059 | 0.702 ± 0.018 | 0.582 ± 0.033 | 0.537 ± 0.037 | 0.499 ± 0.043 | 0.476 ± 0.047 | 0.468 ± 0.02 | 0.477 ± 0.044 |
| COc1cc2nccc(Oc3ccc(NC(=O)Nc4cc(C)on4)c(Cl)c3)c2cc1OC [Tivozanib] | 1.01 ± 0.025 | 1.03 ± 0.035 | 1.04 ± 0.025 | 1.04 ± 0.019 | 1.04 ± 0.023 | 0.98 ± 0.044 | 0.992 ± 0.056 | 0.99 ± 0.021 | 0.965 ± 0.034 | 0.713 ± 0.019 | 0.381 ± 0.0095 |
| CC[C@H](Nc1ncnc2[nH]cnc12)c1nc2cccc(F)c2c(=O)n1-c1ccccc1 [Idelalisib] | 1.06 ± 0.034 | 1.07 ± 0.036 | 1.06 ± 0.051 | 1.05 ± 0.017 | 1.02 ± 0.032 | 0.998 ± 0.036 | 0.987 ± 0.042 | 0.965 ± 0.021 | 0.946 ± 0.013 | 0.877 ± 0.045 | 0.795 ± 0.023 |
| Cc1cc(C)c(/C=C2\C(=O)Nc3ccccc32)[nH]1 [Semaxanib] | 0.957 ± 0.044 | 0.981 ± 0.031 | 0.957 ± 0.043 | 0.976 ± 0.037 | 0.964 ± 0.036 | 0.948 ± 0.019 | 0.9755 ± 0.0068 | 0.9895 ± 0.0091 | 0.932 ± 0.046 | 0.904 ± 0.05 | 0.813 ± 0.067 |
| Cc1ccc(F)c(NC(=O)Nc2ccc(-c3cccc4[nH]nc(N)c34)cc2)c1 [Linifanib] | 1.03 ± 0.045 | 1.03 ± 0.087 | 0.996 ± 0.021 | 1.02 ± 0.02 | 1.01 ± 0.064 | 0.994 ± 0.01 | 0.956 ± 0.031 | 0.956 ± 0.048 | 0.928 ± 0.04 | 0.915 ± 0.013 | 0.9524 ± 0.0058 |
| COCc1c(-c2cc3cc(C)cc(OC)c3s2)c2c(N)ncnn2c1CN1CCNC(=O)C1 [Rogaratinib] | 1.05 ± 0.015 | 1.06 ± 0.037 | 1.02 ± 0.031 | 1.01 ± 0.011 | 1.018 ± 0.0054 | 0.967 ± 0.038 | 0.8878 ± 0.0073 | 0.68 ± 0.015 | 0.592 ± 0.024 | 0.532 ± 0.043 | 0.375 ± 0.0068 |
| N#CC[C@H](C1CCCC1)n1cc(-c2ncnc3[nH]ccc23)cn1 [Ruxolitinib] | 0.971 ± 0.051 | 1.01 ± 0.037 | 1.01 ± 0.034 | 1 ± 0.026 | 1.02 ± 0.02 | 0.969 ± 0.039 | 0.99 ± 0.024 | 0.935 ± 0.047 | 0.942 ± 0.035 | 0.936 ± 0.025 | 0.824 ± 0.034 |
| CCN1CCN(Cc2ccc(Nc3ncc(F)c(-c4cc(F)c5nc(C)n(C(C)C)c5c4)n3)nc2)CC1 [Abemaciclib] | 0.985 ± 0.03 | 0.964 ± 0.018 | 0.924 ± 0.048 | 0.922 ± 0.061 | 0.857 ± 0.051 | 0.822 ± 0.037 | 0.796 ± 0.044 | 0.786 ± 0.048 | 0.758 ± 0.017 | 0.746 ± 0.037 | 0.6941 ± 0.0055 |
| CNC(=O)c1cc(Oc2ccc(NC(=O)Nc3ccc(Cl)c(C(F)(F)F)c3)c(F)c2)ccn1 [Regorafenib] | 1.05 ± 0.058 | 1.06 ± 0.077 | 1.09 ± 0.071 | 1.07 ± 0.025 | 1.07 ± 0.032 | 1.07 ± 0.071 | 1.02 ± 0.058 | 0.888 ± 0.088 | 0.821 ± 0.056 | 0.609 ± 0.062 | 0.431 ± 0.029 |
| Nc1cc(C(F)(F)F)c(-c2cc(N3CCOCC3)nc(N3CCOCC3)n2)cn1 [Buparlisib] | 0.957 ± 0.011 | 0.983 ± 0.013 | 0.932 ± 0.024 | 0.966 ± 0.022 | 1 ± 0.027 | 0.928 ± 0.041 | 0.86 ± 0.027 | 0.767 ± 0.037 | 0.594 ± 0.014 | 0.304 ± 0.005 | 0.237 ± 0.0068 |
| CC(C)NC(=O)C1CCC(n2c(NC(=O)c3ccc(F)cc3)nc3ccc(CN4CCC(C(C)(C)O)CC4)cc32)CC1 (stereo not drawn) [Belizatinib] | 1.01 ± 0.043 | 0.997 ± 0.054 | 1.01 ± 0.061 | 1 ± 0.064 | 1.02 ± 0.022 | 1.01 ± 0.015 | 0.974 ± 0.038 | 0.877 ± 0.026 | 0.606 ± 0.015 | 0.305 ± 0.027 | 0.154 ± 0.02 |
| CC1(C)CNc2cc(NC(=O)c3cccnc3NCc3ccncc3)ccc21 [Motesanib] | 0.984 ± 0.047 | 0.982 ± 0.042 | 0.973 ± 0.019 | 0.955 ± 0.03 | 0.979 ± 0.015 | 0.962 ± 0.022 | 0.949 ± 0.022 | 0.934 ± 0.036 | 0.9058 ± 0.0034 | 0.84 ± 0.034 | 0.684 ± 0.02 |
| CC(=O)Nc1cccc(-n2c(=O)n(C3CC3)c(=O)c3c(Nc4ccc(I)cc4F)n(C)c(=O)c(C)c32)c1 [Trametinib] | 1.01 ± 0.054 | 1 ± 0.019 | 0.952 ± 0.018 | 0.906 ± 0.029 | 0.845 ± 0.032 | 0.765 ± 0.017 | 0.627 ± 0.011 | 0.38 ± 0.027 | 0.184 ± 0.0096 | 0.144 ± 0.014 | 0.12 ± 0.012 |
